Inhibition data for 32 compounds are collected here from US5622962A, “5α-reductase inhibitors” (priority 1995, dated 1997).

The assay deals with T1, Type II 5α-Reductase from Human Prostate (Homo sapiens, UniProt P31213).
T1 construct: The same procedure as above was used for preparations using tissue from prostate surgery; from tissue; host or cells: human prostate tissue from surgery, homogenate, 100,000×g pellet
T1 sequence (P31213 1-254): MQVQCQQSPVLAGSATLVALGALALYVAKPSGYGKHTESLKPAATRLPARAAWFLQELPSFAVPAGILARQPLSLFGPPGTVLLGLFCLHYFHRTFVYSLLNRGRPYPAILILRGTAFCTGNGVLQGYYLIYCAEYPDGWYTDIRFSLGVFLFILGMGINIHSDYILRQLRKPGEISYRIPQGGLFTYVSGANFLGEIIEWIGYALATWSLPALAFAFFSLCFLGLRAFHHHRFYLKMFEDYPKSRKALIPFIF
Description: Human Type II 5α-reductase assay (conversion of [3H]-testosterone to 5α-reduced metabolites). The assay is classed as biochemical. The conditions noted are these: pH 5.5, 0.3 μM; sodium acetate pH 5.5, 25°, 30 min; compared to control reaction mixtures; read-out: percent inhibition of Type II AR.
In the case of `CN1C(=O)CC[C@]2(C)c3ccc(-c4ccc5c(c4)CCC5O)cc3CC[C@@H]12` (single isomer, unassigned; (+)) [Example 245], the inhibition (usually the drop in the measured response relative to a control, in per cent) at 0.3 µM amounted to 44%. With `C[C@]12CCC(=O)N[C@@H]1CCc1cc(Sc3ccccc3)ccc12` [Example 22, (4aR)-(10bR)-8-phenylthio-10b-methyl-1,2,3,4,4a,5,6,10b-octahydrobenzo[f]quinolin-3-one], the inhibition at 0.3 µM was determined as 19%. Consider `COc1ccc(-c2ccc3c(c2)CC[C@H]2N(C)C(=O)CC[C@]32C)cc1OC` [Example 42, (+)-(4 aR)-(10bR)-4-methyl-8-(3,4-dimethoxyphenyl)-10b-methyl-1,2,3,4,4a,5,6,10b-octahydrobenzo[f]quinolin-3-one], for which the inhibition at 0.3 µM worked out at 32%. To `CN1C(=O)CC[C@]2(C)c3ccc(-c4cccc(F)c4)cc3CC[C@@H]12` [Example 44, (+)-(4aR)-(10bR)-4-methyl-8-(3-fluorophenyl)-10b-methyl-1,2,3,4,4a,5,6,10b-octahydrobenzo[f]quinolin-3-one] belongs 27%; to `C[C@]12CCC(=O)N[C@@H]1CCc1cc(-c3cnc4ccccc4c3)ccc12` [Example 45, (+)-(4aR)-(10bR)-8-(3-quinolinyl)-10b-methyl-1,2,3,4,4a,-5,6,10b-octahydrobenzo[f]quinolin-3-one], 45%; to `COc1ccc(-c2ccc3c(c2)CC[C@H]2N(C)C(=O)CC[C@]32C)cc1` [Example 47, (+)-(4aR)-(10bR)-4-methyl-8-(4-methoxyphenyl)-10b-methyl-1,2,3,4,4a,5,6,10b-octahydrobenzo[f]quinolin-3-one], 16%.

As for `COc1cccc(-c2ccc3c(c2)CC[C@H]2N(C)C(=O)CC[C@]32C)c1` [Example 48, (+)-(4aR)-(10bR)-4-methyl-8-(3-methoxyphenyl)-10b-methyl-1,2,3,4,4a,5,6,10b-octahydrobenzo[f]quinolin-3-one], the inhibition at 0.3 µM worked out at 12%.

On to `CN1C(=O)CC[C@]2(C)c3ccc(-c4cccnc4)cc3CC[C@@H]12` [Example 54, (+)-(4aR)-(10bR)-4-methyl-8-(3-pyridyl)-10b-methyl-1,2,3,4,4a,5,6,10b-octahydrobenzo[f]quinolin-3-one], for which the inhibition at 0.3 µM turned out to be 22%. With `CN1C(=O)CC[C@]2(C)c3ccc(-c4cccc(C=O)c4)cc3CC[C@@H]12` [Example 57, (+)-(4aR)-(10bR)-4-methyl-8-(3-formylphenyl)-10b-methyl-1,2,3,4,4a,5,6,10b-octahydrobenzo[f]quinolin-3-one], the inhibition at 0.3 µM was found to be 20%.

For the compound `CN(C)c1ccc(-c2ccc3c(c2)CC[C@H]2N(C)C(=O)CC[C@]32C)cc1` [Example 59, (+)-(4aR)-(10bR)-4-methyl-8-(4-dimethylaminophenyl)-10b-methyl-1,2,3,4,4a,5,6,10b-octahydrobenzo[f]quinolin-3-one], the inhibition at 0.3 µM was 31%. For `CN1C(=O)CC[C@]2(C)c3ccc(-c4ccc5cc(O)ccc5c4)cc3CC[C@@H]12` [Example 60, (+)-(4aR)-(10bR)-4-methyl-8-(2-[6-hydroxy]naphthyl)-10b-methyl-1,2,3,4,4a,5,6,10b-octahydrobenzo[f]quinolin-3-one], the inhibition at 0.3 µM turned out to be 42%. As for `CN1C(=O)CC[C@]2(C)c3ccc(-c4cccc(Cl)c4)cc3CC[C@@H]12` [Example 63, (+)-(4aR)-(10bR)-4-methyl-8-(3-chlorophenyl)-10b-methyl-1,2,3,4,4a,5,6,10b-octahydrobenzo[f]quinolin-3-one], the inhibition at 0.3 µM is 19%. In the case of `CN1C(=O)CC[C@]2(C)c3ccc(-c4ccc5c(c4)OCO5)cc3CC[C@@H]12` [Example 70, (+)-(4aR)-(10bR)-4-methyl-8-(3,4-methylenedioxyphenyl)-10b-methyl-1,2,3,4,4a,5,6,10b-octahydrobenzo[f]quinolin-3-one], the inhibition at 0.3 µM is 36%. With `CN1C(=O)CC[C@]2(C)c3ccc(-c4ccc(OC(F)(F)F)cc4)cc3CC[C@@H]12` [Example 78, (+)-(4aR)-(10bR)-4-methyl-8-(4-trifluoromethoxyphenyl)-10b-methyl-1,2,3,4,4a,5,6,10b-octahydrobenzo[f]quinolin-3-one], the inhibition at 0.3 µM came to 3%.

`CN1C(=O)CC[C@]2(C)c3ccc(-c4ccc(C(F)(F)F)cc4)cc3CC[C@@H]12` [Example 79, (+)-(4aR)-(10bR)-4-methyl-8-(4-trifluoromethylphenyl)-10b-methyl-1,2,3,4,4a,5,6,10b-octahydrobenzo[f]quinolin-3-one]: the inhibition at 0.3 µM was found to be 34%. To `Cc1cc(C)cc(-c2ccc3c(c2)CC[C@H]2N(C)C(=O)CC[C@]32C)c1` [Example 83, (+)-(4aR)-(10bR)-4-methyl-8-(3,5-dimethylphenyl)-10b-methyl-1,2,3,4,4a,5,6,10b-octahydrobenzo[f]quinolin-3-one] belongs 12%; to `CN1C(=O)CC[C@]2(C)c3ccc(-c4ccc(F)cc4)cc3CC[C@@H]12` [Example 85, (+)-(4aR)-(10bR)-4-methyl-8-(4-fluorophenyl)-10b-methyl-1,2,3,4,4a,5,6,10b-octahydrobenzo[f]quinolin-3-one], 12%. To `CCOc1ccc(-c2ccc(-c3ccc4c(c3)CC[C@H]3N(C)C(=O)CC[C@]43C)cc2)cc1` [Example 89, (+)-(4aR)-(10bR)-4-methyl-8-(4-[4-ethoxy]biphenyl)-10b-methyl-1,2,3,4,4a,5,6,10b-octahydrobenzo[f]quinolin-3-one] belongs 15%; to `CN1C(=O)CC[C@]2(C)c3ccc(-c4cccc(N)c4)cc3CC[C@@H]12` [Example 90, (+)-(4aR)-(10bR)-4-methyl-8-(3-aminophenyl)-10b-methyl-1,2,3,4,4a,5,6,10b-octahydrobenzo[f]quinolin-3-one], 22%. To `C[C@]12CCC(=O)N[C@@H]1CCc1cc(-c3cccc4ccccc34)ccc12` [Example 92, (+)-(4aR)-(10bR)-8-(1-naphthyl)-10b-methyl-1,2,3,4,4a,5,6,10b-octahydrobenzo[f]quinolin-3-one] belongs 10%; to `C[C@]12CCC(=O)N[C@@H]1CCc1cc(-c3cccc([N+](=O)[O-])c3)ccc12` [Example 93, (+)-(4aR)-(10bR)-8-(3-nitrophenyl)-10b-methyl-1,2,3,4,4a,5,6,10b-octahydrobenzo[f]quinolin-3-one], 9%; to `CN1C(=O)CC[C@]2(C)c3ccc(-c4ccc(Cl)cc4Cl)cc3CC[C@@H]12` [Example 94, (+)-(4aR)-(10bR)-4-methyl-8-(2,4-dichlorophenyl)-10b-methyl-1,2,3,4,4a,5,6,10b-octahydrobenzo[f]quinolin-3-one], 1%.

As to `CN1C(=O)CC[C@]2(C)c3ccc(Sc4ccccc4)cc3CC[C@@H]12` [Example 116, (4aR)-(10bR)-4,10b-dimethyl-8-phenylthio-1,2,3,4, -4a,5,6,10b-octahydrobenzo[f]quinolin-3-one], the inhibition at 0.3 µM worked out at 24%. As for `CN1C(=O)CC[C@]2(C)c3ccc(-c4ccc(C#N)cc4)cc3CC[C@@H]12` [Example 121, (+)-(4aR)-(10bR)-4-methyl-8-(4-cyanophenyl)-10b-methyl-1,2,3,4,4a,5,6,10b-octahydrobenzo[f]quinolin-3-one], the inhibition at 0.3 µM is 41%. Consider `CC(C)C(=O)c1ccc(-c2ccc3c(c2)CC[C@H]2N(C)C(=O)CC[C@]32C)cc1` [Example 122, (+)-(4aR)-(10bR)-4-methyl-8-(4-[isopropylcarbonyl]phenyl)-10b-methyl-1,2,3,4,4a,5,6,10b-octahydrobenzo[f]quinolin-3-one], for which the inhibition at 0.3 µM is 36%. With `CSc1ccccc1-c1ccc2c(c1)CC[C@H]1N(C)C(=O)CC[C@]21C` [Example 127, (+)-(4aR)-(10bR)-4-methyl-8-(2-methylthiophenyl)-10b-methyl-1,2,3,4,4a,5,6,10b-octahydrobenzo[f]quinolin-3-one] the figure was 40%; with `C[C@]12C=CC(=O)N[C@@H]1CCc1cc(-c3cccc4ccccc34)ccc12` [Example 140, (+)-(4aR)-(10bR)-8-(1-naphthyl)-10b-methyl-3,4,4a,5,6,10b-hexahydrobenzo[f]quinolin-3-one], 20%; with `C[C@]12C=CC(=O)N[C@@H]1CCc1cc(-c3cccc([N+](=O)[O-])c3)ccc12` [Example 141, (+)-(4aR)-(10bR)-8-(3-nitrophenyl)-10b-methyl-3,4,4a,5,6,10b-hexahydrobenzo[f]quinolin-3-one], 19%. For `C[C@]12CCC(=O)N[C@@H]1CCc1cc(-c3cc(C(F)(F)F)nc4c(C(F)(F)F)cccc34)ccc12` [Example 197, (+)-(4aR)-(10bR)-8-(4-[2,8-bistrifluoromethyl]quinolinyl)-10b-methyl-1,2,3,4,4a,5,6,10b-octahydrobenzo[f]quinolin-3-one], the inhibition at 0.3 µM was found to be 37%. To `C[C@]12CCC(=O)N[C@@H]1CCc1cc(-c3nccs3)ccc12` [Example 198, (+)-(4aR)-(10bR)-8-(2-thiazolyl)-10b-methyl-1,2,3,4,4a,-5,6,10b-octahydrobenzo[f]quinolin-3-one] belongs 7%; to `C[C@]12CCC(=O)N[C@@H]1CCc1cc(-c3ccc([N+](=O)[O-])cn3)ccc12` [Example 199, (+)-(4aR)-(10bR)-8-(5-nitro-2-pyridinyl)-10b-methyl-1,2,3,4,4a,5,6,10b-octahydrobenzo[f]quinolin-3-one], 30%; to `CN1C(=O)CC[C@]2(C)c3ccc(NC(=O)c4cccc([N+](=O)[O-])c4)cc3CC[C@@H]12` [Example 268, (+)-(4aR)-(10bR)-4,10b-dimethyl-8-(3-nitrobenzoylamino)-1,2,3,4,4a,5,6,10b-octahydrobenzo[f]quinolin-3-one], 18%.
